Values of other authors as cited in patent US20230364129A1, “TOPICAL COMPOSITIONS” (Prime Performance Research LLC, priority 2022, published 2023).

What was measured:
[1] = carnosine 200 μmol/L; hydroxyl and/or peroxy-type radicals (Drafi, 2010)
[2] = test system: human colorectal cancer cells; settings: by suppressing NF-κB/STAT1 signaling (Lee, 2018)
[3] = test system: hind paw oedema, synovitis and destruction of the articular cartilage; settings: orally administered; several animal studies (Volpi, 2011)
[4] = test system: NF-κB transcription factor in antigen presenting cells

Compound | effect on hyaluronan degradation [1] | cell cycle arrest and apoptosis [2] | hind paw oedema, synovitis and destruction of the articular cartilage [3] | activation of the NF-κB transcription factor ([4]; antigen presenting cells (Zhang, 2015)) | TNF-α production ([4]; through the TLR/MyD88 pathway (Zhang, 2015))
NCCC(=O)N[C@@H](Cc1cnc[nH]1)C(=O)O [carnosine, beta-alanyl-L-histidine] | protective action | induces cell cycle arrest and apoptosis |  |  | 
Chondroitin sulfate [CS] |  |  | significantly inhibited | could activate | induce TNF-α production
